Test results: patent US8192962B2, “Processes for detecting toxic substances” (Daikin Industries, Ltd., priority 2001, dated 2012)

Tested on: Metabolism protein genes
Assay: DNA chip mRNA expression in yeast, metabolism protein genes (Table 7)
Type: cell-based, Saccharomyces cerevisiae S288C
Summary of the method: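 Value is the scanned fluorescence intensity ratio of exposed versus chemical-free cells. Log-phase S288C yeast in YPD at 25° C. received one toxic substance for two hours, dosed to slow growth without killing; Cy3/Cy5-labeled cDNA from oligo-dT-purified mRNA was hybridized to a whole-genome chip at 65° C.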

SMILES: CN(C)C(=S)SSC(=S)N(C)C [(10), Tetramethylthiuram disulfide]
- The level of expressed mRNA in the presence of chemical substance/The level of expressed mRNA in the absence of chemical substance (yeast gene YAL012W): 3.9
- The level of expressed mRNA in the presence of chemical substance/The level of expressed mRNA in the absence of chemical substance (yeast gene YAL038W): 1.1
- The level of expressed mRNA in the presence of chemical substance/The level of expressed mRNA in the absence of chemical substance (yeast gene YAL044C): 0.6
- The level of expressed mRNA in the presence of chemical substance/The level of expressed mRNA in the absence of chemical substance (yeast gene YAL054C): 4.1
- The level of expressed mRNA in the presence of chemical substance/The level of expressed mRNA in the absence of chemical substance (yeast gene YAR071W): 0.3
- The level of expressed mRNA in the presence of chemical substance/The level of expressed mRNA in the absence of chemical substance (yeast gene YBL001C): 0.9
- level of expressed mRNA in the presence/in the absence of chemical substance (yeast gene YBR003W): 1.3
- level of expressed mRNA in the presence/in the absence of chemical substance (yeast gene YBR011C): 1.0
- The level of expressed mRNA in the presence of chemical substance/The level of expressed mRNA in the absence of chemical substance (yeast gene YBR014C): 0.8
- level of expressed mRNA in the presence/in the absence of chemical substance (yeast gene YBR020W): 1.1
- The level of expressed mRNA in the presence of chemical substance/The level of expressed mRNA in the absence of chemical substance (yeast gene YBR023C): 0.4
- The level of expressed mRNA in the presence of chemical substance/The level of expressed mRNA in the absence of chemical substance (yeast gene YBR029C): 1.1
- The level of expressed mRNA in the presence of chemical substance/The level of expressed mRNA in the absence of chemical substance (yeast gene YBR035C): 1.5
- The level of expressed mRNA in the presence of chemical substance/The level of expressed mRNA in the absence of chemical substance (yeast gene YBR068C): 2.5
- The level of expressed mRNA in the presence of chemical substance/The level of expressed mRNA in the absence of chemical substance (yeast gene YBR111C): 1.9
- The level of expressed mRNA in the presence of chemical substance/The level of expressed mRNA in the absence of chemical substance (yeast gene YBR183W): 2.0
- The level of expressed mRNA in the presence of chemical substance/The level of expressed mRNA in the absence of chemical substance (yeast gene YBR222C): 1.0
- The level of expressed mRNA in the presence of chemical substance/The level of expressed mRNA in the absence of chemical substance (yeast gene YBR256C): 6.8
- The level of expressed mRNA in the presence of chemical substance/The level of expressed mRNA in the absence of chemical substance (yeast gene YBR296C): 1.8
- The level of expressed mRNA in the presence of chemical substance/The level of expressed mRNA in the absence of chemical substance (yeast gene YCL009C): 1.6
- The level of expressed mRNA in the presence of chemical substance/The level of expressed mRNA in the absence of chemical substance (yeast gene YCL064C): 5.2
- level of expressed mRNA in the presence/in the absence of chemical substance (yeast gene YCR010C): 4.7
- level of expressed mRNA in the presence/in the absence of chemical substance (yeast gene YCR034W): 0.2
- The level of expressed mRNA in the presence of chemical substance/The level of expressed mRNA in the absence of chemical substance (yeast gene YCR048W): 0.5
- The level of expressed mRNA in the presence of chemical substance/The level of expressed mRNA in the absence of chemical substance (yeast gene YCR098C): 2.4
- The level of expressed mRNA in the presence of chemical substance/The level of expressed mRNA in the absence of chemical substance (yeast gene YDR019C): 0.7
- level of expressed mRNA in the presence/in the absence of chemical substance (yeast gene YDR050C): 1.3
- level of expressed mRNA in the presence/in the absence of chemical substance (yeast gene YDR073W): 1.2
- level of expressed mRNA in the presence/in the absence of chemical substance (yeast gene YDR123C): 0.6
- level of expressed mRNA in the presence/in the absence of chemical substance (yeast gene YDR178W): 0.8
- level of expressed mRNA in the presence/in the absence of chemical substance (yeast gene YDR277C): 0.9
- level of expressed mRNA in the presence/in the absence of chemical substance (yeast gene YDR284C): 1.0
- level of expressed mRNA in the presence/in the absence of chemical substance (yeast gene YDR345C): 1.1
- The level of expressed mRNA in the presence of chemical substance/The level of expressed mRNA in the absence of chemical substance (yeast gene YDR380W): 0.3
- level of expressed mRNA in the presence/in the absence of chemical substance (yeast gene YDR400W): 1.4
- level of expressed mRNA in the presence/in the absence of chemical substance (yeast gene YDR408C): 0.5
- level of expressed mRNA in the presence/in the absence of chemical substance (yeast gene YDR483W): 1.1
- The level of expressed mRNA in the presence of chemical substance/The level of expressed mRNA in the absence of chemical substance (yeast gene YDR497C): 0.8
- The level of expressed mRNA in the presence of chemical substance/The level of expressed mRNA in the absence of chemical substance (yeast gene YDR502C): 0.9
- The level of expressed mRNA in the presence of chemical substance/The level of expressed mRNA in the absence of chemical substance (yeast gene YDR516C): 5.2
- level of expressed mRNA in the presence/in the absence of chemical substance (yeast gene YEL063C): 1.7
- level of expressed mRNA in the presence/in the absence of chemical substance (yeast gene YER015W): 0.9
- The level of expressed mRNA in the presence of chemical substance/The level of expressed mRNA in the absence of chemical substance (yeast gene YER026C): 1.5
- The level of expressed mRNA in the presence of chemical substance/The level of expressed mRNA in the absence of chemical substance (yeast gene YER053C): 3.9
- The level of expressed mRNA in the presence of chemical substance/The level of expressed mRNA in the absence of chemical substance (yeast gene YER069W): 10.4
- level of expressed mRNA in the presence/in the absence of chemical substance (yeast gene YER081W): 1.1
- The level of expressed mRNA in the presence of chemical substance/The level of expressed mRNA in the absence of chemical substance (yeast gene YER096W): 3.5
- level of expressed mRNA in the presence/in the absence of chemical substance (yeast gene YER120W): 0.9
- The level of expressed mRNA in the presence of chemical substance/The level of expressed mRNA in the absence of chemical substance (yeast gene YER178W): 1.3
- level of expressed mRNA in the presence/in the absence of chemical substance (yeast gene YFL011W): 1.6
- The level of expressed mRNA in the presence of chemical substance/The level of expressed mRNA in the absence of chemical substance (yeast gene YFL014W): 5.8
- The level of expressed mRNA in the presence of chemical substance/The level of expressed mRNA in the absence of chemical substance (yeast gene YFL030W): 4.9
- The level of expressed mRNA in the presence of chemical substance/The level of expressed mRNA in the absence of chemical substance (yeast gene YFL031W): 0.7
- The level of expressed mRNA in the presence of chemical substance/The level of expressed mRNA in the absence of chemical substance (yeast gene YFL056C): 31.3
- The level of expressed mRNA in the presence of chemical substance/The level of expressed mRNA in the absence of chemical substance (yeast gene YFL057C): 46.1
- The level of expressed mRNA in the presence of chemical substance/The level of expressed mRNA in the absence of chemical substance (yeast gene YFR047C): 1.5
- level of expressed mRNA in the presence/in the absence of chemical substance (yeast gene YGL012W): 0.9
- The level of expressed mRNA in the presence of chemical substance/The level of expressed mRNA in the absence of chemical substance (yeast gene YGL022W): 0.4
- level of expressed mRNA in the presence/in the absence of chemical substance (yeast gene YGL115W): 1.2
- The level of expressed mRNA in the presence of chemical substance/The level of expressed mRNA in the absence of chemical substance (yeast gene YGL126W): 0.7
- The level of expressed mRNA in the presence of chemical substance/The level of expressed mRNA in the absence of chemical substance (yeast gene YGL202W): 1.7
- level of expressed mRNA in the presence/in the absence of chemical substance (yeast gene YGL205W): 0.6
- The level of expressed mRNA in the presence of chemical substance/The level of expressed mRNA in the absence of chemical substance (yeast gene YGL209W): 0.4
- The level of expressed mRNA in the presence of chemical substance/The level of expressed mRNA in the absence of chemical substance (yeast gene YGL248W): 2.9
- The level of expressed mRNA in the presence of chemical substance/The level of expressed mRNA in the absence of chemical substance (yeast gene YGL252C): 1.7
- The level of expressed mRNA in the presence of chemical substance/The level of expressed mRNA in the absence of chemical substance (yeast gene YGR037C): 1.4
- The level of expressed mRNA in the presence of chemical substance/The level of expressed mRNA in the absence of chemical substance (yeast gene YGR055W): 2.4
- level of expressed mRNA in the presence/in the absence of chemical substance (yeast gene YGR096W): 0.8
- level of expressed mRNA in the presence/in the absence of chemical substance (yeast gene YGR191W): 0.7
- The level of expressed mRNA in the presence of chemical substance/The level of expressed mRNA in the absence of chemical substance (yeast gene YGR194C): 2.1
- level of expressed mRNA in the presence/in the absence of chemical substance (yeast gene YGR204W): 2.3
- The level of expressed mRNA in the presence of chemical substance/The level of expressed mRNA in the absence of chemical substance (yeast gene YGR256W): 2.5
- The level of expressed mRNA in the presence of chemical substance/The level of expressed mRNA in the absence of chemical substance (yeast gene YGR282C): 0.8
- level of expressed mRNA in the presence/in the absence of chemical substance (yeast gene YGR288W): 2.6
- level of expressed mRNA in the presence/in the absence of chemical substance (yeast gene YHR025W): 0.4
- The level of expressed mRNA in the presence of chemical substance/The level of expressed mRNA in the absence of chemical substance (yeast gene YHR111W): 4.2
- level of expressed mRNA in the presence/in the absence of chemical substance (yeast gene YHR123W): 1.1
- The level of expressed mRNA in the presence of chemical substance/The level of expressed mRNA in the absence of chemical substance (yeast gene YHR137W): 0.9
- The level of expressed mRNA in the presence of chemical substance/The level of expressed mRNA in the absence of chemical substance (yeast gene YHR174W): 1.5
- The level of expressed mRNA in the presence of chemical substance/The level of expressed mRNA in the absence of chemical substance (yeast gene YHR176W): 6.4
- level of expressed mRNA in the presence/in the absence of chemical substance (yeast gene YHR210C): 0.9
- level of expressed mRNA in the presence/in the absence of chemical substance (yeast gene YIL006W): 1.1
- The level of expressed mRNA in the presence of chemical substance/The level of expressed mRNA in the absence of chemical substance (yeast gene YIL045W): 3.2
- The level of expressed mRNA in the presence of chemical substance/The level of expressed mRNA in the absence of chemical substance (yeast gene YIL107C): 3.5
- The level of expressed mRNA in the presence of chemical substance/The level of expressed mRNA in the absence of chemical substance (yeast gene YIL154C): 1.0
- The level of expressed mRNA in the presence of chemical substance/The level of expressed mRNA in the absence of chemical substance (yeast gene YIL155C): 2.9
- The level of expressed mRNA in the presence of chemical substance/The level of expressed mRNA in the absence of chemical substance (yeast gene YIL167W): 12.7
- The level of expressed mRNA in the presence of chemical substance/The level of expressed mRNA in the absence of chemical substance (yeast gene YIL172C): 7.1
- The level of expressed mRNA in the presence of chemical substance/The level of expressed mRNA in the absence of chemical substance (yeast gene YIR034C): 3.5
- The level of expressed mRNA in the presence of chemical substance/The level of expressed mRNA in the absence of chemical substance (yeast gene YIR036C): 1.9
- The level of expressed mRNA in the presence of chemical substance/The level of expressed mRNA in the absence of chemical substance (yeast gene YJL031C): 3.6
- The level of expressed mRNA in the presence of chemical substance/The level of expressed mRNA in the absence of chemical substance (yeast gene YJL068C): 3.1
- The level of expressed mRNA in the presence of chemical substance/The level of expressed mRNA in the absence of chemical substance (yeast gene YJL088W): 4.1
- The level of expressed mRNA in the presence of chemical substance/The level of expressed mRNA in the absence of chemical substance (yeast gene YJL099W): 3.1
- level of expressed mRNA in the presence/in the absence of chemical substance (yeast gene YJL121C): 0.4
- level of expressed mRNA in the presence/in the absence of chemical substance (yeast gene YJL167W): 0.9
- The level of expressed mRNA in the presence of chemical substance/The level of expressed mRNA in the absence of chemical substance (yeast gene YJL172W): 1.9
- The level of expressed mRNA in the presence of chemical substance/The level of expressed mRNA in the absence of chemical substance (yeast gene YJL219W): 2.3
- level of expressed mRNA in the presence/in the absence of chemical substance (yeast gene YJR077C): 0.7
- The level of expressed mRNA in the presence of chemical substance/The level of expressed mRNA in the absence of chemical substance (yeast gene YJR137C): 4.8
